From paper PMC8179049 (Chemical Science, 2020) come the findings set out here.

Molecules are shown by their SMILES. “And” between values parts separate entries of the source, which are not always exact repeats. Equal values may be shown once. Read-outs that look alike come from different tables or passages of the source.

In series [1] the target is T1, human AspH (His6-AspH315-758) (Homo sapiens, UniProt Q12797).
T1 construct: N-Terminally His6-tagged human AspH315-758 (His6-AspH315-758) was produced in Escherichia coli BL21 (DE3); made in house; host or cells: Escherichia coli BL21 (DE3), pET-28a(+) vector
T1 sequence (Q12797 315-758): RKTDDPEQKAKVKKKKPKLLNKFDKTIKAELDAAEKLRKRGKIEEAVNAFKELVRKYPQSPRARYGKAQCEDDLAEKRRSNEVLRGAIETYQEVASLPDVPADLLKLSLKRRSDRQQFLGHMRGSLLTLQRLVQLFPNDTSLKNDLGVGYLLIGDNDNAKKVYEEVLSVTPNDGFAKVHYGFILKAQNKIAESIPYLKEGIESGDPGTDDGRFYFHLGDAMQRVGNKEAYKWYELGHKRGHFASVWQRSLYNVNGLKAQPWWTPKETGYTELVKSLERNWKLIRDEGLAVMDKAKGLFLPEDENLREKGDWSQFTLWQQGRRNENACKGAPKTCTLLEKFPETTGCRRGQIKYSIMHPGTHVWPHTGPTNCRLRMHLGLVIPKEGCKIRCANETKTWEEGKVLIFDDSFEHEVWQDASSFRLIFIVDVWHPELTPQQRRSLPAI
Description: SPE-MS AspH inhibition assay. The format is biochemical. The following applies: mean ± SD, n = 3. As to the method: 6. Recombinant AspH production and purification
N-Terminally His6-tagged human AspH315-758 (His6-AspH315-758) was produced in Escherichia coli BL21 (DE3) cells using a pET-28a(+) vector and purified by Ni(II)-affinity chromatography (HisTrap HP column, GE Healthcare; 1 mL/min flow rate) and size-exclusion chromatography (HiLoad 26/60 Superdex 75 pg 300 mL column; 1 mL/min) using an ÄKTA pure machine (GE Healthcare) as previously reported.1,4 AspH was >95% pure by SDS-PAGE and MS analysis and had the anticipated mass (calculated for His6-AspH315-758: 54519 Da, found: 54519 Da).1 Purified AspH was stored in 50 mM HEPES buffer (pH 7.5, 150 mM NaCl) at a concentration of 125 μM at -78 °C; fresh aliquots were used for all AspH assays.
7. AspH substrate synthesis
AspH substrates were designed based on the sequence of EGFD1 of human coagulation factor X (hFX amino acids 86-124), which is a reported cellular AspH substrate.2 All substrates were prepared with a C-terminal amide.
The hFX-EGFD186-124-4Ser peptide (hFX amino acids 86-124; Supporting Figure S1c),1 used for crystallography experiments, was synthesized by solid phase peptide synthesis (SPPS) and purified by GL Biochem (Shanghai) Ltd (Shanghai, China). The thioether linked cyclic peptide hFX-CP101-119 (hFX amino acids 101-119; Supporting
Figure S1d), which was used as substrate in AspH SPE-MS assays,4 was synthesized by an intramolecular thioetherification cyclization reaction from the corresponding linear peptide (D-Ala replacing Cys101hFX and Ser replacing Cys112hFX) which was obtained by microwave-assisted solid phase peptide synthesis using the Fmoc-protection strategy as described.4
8. AspH inhibition assays […]
water; ammonium iron(II) sulfate hexahydrate, FAS, (NH 4)2Fe(SO4)2·6H2O: 400 mM in 20 mM HCl diluted to 1 mM in Milli-Q® Ultrapure water) were freshly prepared each day from commercially sourced solids (Sigma […]
(Greiner) in an approximately three-fold and 11-point dilution series (100 μM top concentration) using an ECHO 550 acoustic dispenser (Labcyte). DMSO and 2,4 -PDCA were used as negative and positive controls , respectively .
The final DMSO concentration was kept constant at 0.5%v/v throughout all experiments (using the DMSO backfill option of the acoustic dispenser). Each reaction was performed in technical duplicates in adjacent wells of the assay plates; additionally, assays were performed in three independent technical duplicates on different days using different DMSO inhibitor solutions. […]
dispensed across the inhibitor-containing 384-well assay plates with a multidrop dispenser (ThermoFischer Scientific) at 20°C under an ambient atmosphere. The plates were subsequently centrifuged (1000 rpm, 30 s) and incubated for 15 minutes at 20°C. The Substrate Mixture (25 μL/well), containing 2.0 μM hFX-CP101-119, 200 μM […]
Note: The multidrop dispenser ensured proper mixing of the Enzyme and the Substrate Mixtures which was essential for assay reproducibility. The plates were centrifuged (1000 rpm, 30 s) and af ter incubating for 7 minutes, […]
centrifuged (1000 rpm, 60 s) and analysed by MS.
(§1) The mass spectrometer parameters were:
(§2) Data were exported into Microsoft
(§3) The standard deviation (SD) of three
(§4) Z’-factors were calculated
9. Determination of kinetic parameters […]
(§5) in 50 mM HEPES buffer (pH 7.5).

In series [2] the target is T1, human AspH (His6-AspH315-758). Description: AspH steady-state kinetics by SPE-MS turnover assays. The format is biochemical. Conditions: for K app m / v app max: 0.1 μM His6-AspH315–758, 2.0 μM hFX-CP101–119, in the presence of LAA, mean ± SD, n = 3. As for the experimental part:
Supporting Figure S6. Initial hydroxylation rates of AspH-catalyzed peptide hydroxylations used to
Measurement times were normalized to the first sample injection analyzed after the addition of the Enzyme
as §1, §2, §3, §4
9. Determination of kinetic parameters
as §5

Series [3] shares this target. Description: NMR monitoring of AspH-catalyzed oxidative decarboxylation, with final SPE-MS analysis. The format is biochemical. Conditions: for time to complete AspH-catalyzed oxidative decarboxylation (NMR): 10 μM AspH, 150 μM cosubstrate. As for the experimental part: 2-methylsuccinate and terephthalate, respectively (continues on the following two pages). The AspH- […]
700 NMR machine equipped with a 5mm 1H(13C/15N) inverse cryoprobe. Assay conditions: 10 μM His6-AspH315- […]
iron(II) sulfate hexahydrate (FAS, (NH4)2Fe(SO4)2·6H2O) in 50 mM aqueous Tris-d11 containing 10 %v/v D2O (pH […]
product of the AspH-catalyzed reaction, was determined using SPE-MS (Supporting Information, Section 9) after […]
of the 1H NMR spectrum of commercial succinate in 50 mM aqueous Tris-d11 containing 10 %v/v D2O (pH 7.5, 25° […]
(1 picture or pasted object on this page, not shown here) […]
using a Bruker AVIII 700 NMR machine equipped with a 5mm 1H(13C/15N) inverse cryoprobe. Assay conditions: […]
ammonium iron(II) sulfate hexahydrate (FAS, (NH 4)2Fe(SO4)2·6H2O) in 50 mM aqueous Tris -d11 containing […]
which is the product of the AspH-catalyzed reaction, was determined using SPE-MS (Supporting Information, Section 9) after completion of the NMR experiments. […]
spectrum of synthetic 34 in 50 mM aqueous Tris-d11 containing 10 %v/v D2O (pH 7.5, 25° C); (b) Close-up (3.0-0.9 ppm) of the 1H NMR spectrum of commercial 2,2-dimethylsuccinate (52) in 50 mM aqueous Tris-d11

The target of series [4] is T2, human AspH (Homo sapiens, UniProt Q12797).
T2 sequence (Q12797 315-758): T1 sequence (Q12797 315-758)
Description: SPE-MS AspH turnover assay in the absence of 2OG (2OG derivative as cosubstrate).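 Also: percent conversion = hydroxylated cyclic peptide peak area relative to summed substrate plus product areas, taken from +2 charge state ion chromatograms by solid phase extraction MS.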 The following applies: 330 μM 2OG or 2OG derivative, 0.1 μM AspH, 2 μM hFX-CP101-119, 50 μM FAS, t = 15 min.
Description: AspH assays were performed as described in the ESI, ^† data are shown as the mean of three independent runs (n = 3; mean ± standard deviation, SD).
AspH assays were performed as described in Section 9 of the Supporting Information using 0.1 μM AspH, 2 μM
a positive control in the SPE-MS AspH turnover assays (Entry 1).
dependent conversion of the AspH substrate hFX-CP101-119 (Supporting Figure S1d). %-Substrate conversion is
AspH assays were performed as
described in Section 9 of the Supporting Information using 0.1 μM AspH, 2 μM hFX-CP101-119, 50 μM FAS, 330
AspH inhibition assays were incubated for 6 rather than 7 minutes before the enzyme reaction was
stopped by the addition of 10%v/v aqueous formic acid.
MS-analyses were performed using a RapidFire RF 365 high-throughput sampling robot (Agilent) attached to an
iFunnel Agilent 6550 accurate mass quadrupole time-of-flight (Q-TOF) mass spectrometer operated in the positive
ionization mode. Assay samples were aspirated under vacuum for 0.4 s and loaded onto a C4 solid phase extraction (SPE) cartridge. After loading, the C4 SPE cartridge was washed with 0.1%v/v aqueous formic acid to remove
non-volatile buffer salts (5 s, 1.5 mL/min). The peptide was eluted from the SPE cartridge with 0.1%v/v aqueous
formic acid in 85/15v/v acetonitrile/water into the mass spectrometer (5 s, 1.25 mL/min) and the SPE cartridge re-
equilibrated with 0.1%v/v aqueous formic acid (1 s, 1.25 mL/min). The mass spectrometer parameters were:
capillary voltage (4000 V), nozzle voltage (1000 V), fragmentor voltage (365 V), gas temperature (280°C), gas
flow (13 L/min), sheath gas temperature (350°C), sheath gas flow (12 L/min). The m/z +2 charge states of the
cyclic peptide (substrate) and the hydroxylated cyclic peptide (product) were used to extract ion chromatogram
data, peak areas were integrated using RapidFire Integrator software (Agilent). Data were exported into Microsoft
Excel and used to calculate the % conversion of the hydroxylation reaction using the equation: % conversion =
100 x (integral product cyclic peptide) / (integral substrate cyclic peptide + integral product cyclic peptide).
Normalized dose-response curves (2,4-PDCA and DMSO controls) were obtained from the raw data by non-linear
regression (GraphPad Prism 5) and used to determine IC50-values. The standard deviation (SD) of three
independent IC50 determinations (n = 3) was calculated using GraphPad Prism 5. Z’-factors were calculated
according to the cited literature using Microsoft Excel (Supporting Figure S3).14

The mark [5] stands for this setting: 50 nM His6-AspH315–758, 1.0 μM hFX-CP101–119, 3 μM 2OG.
[6] abbreviates: 50 nM His6-AspH315–758, 1.0 μM hFX-CP101–119, 3 μM 2OG, read-out: IC50 (inhibition of AspH).

In general, IC50 refers to the point on the concentration scale where inhibition reaches its midpoint. As to `CC(CC(=O)O)C(=O)C(=O)O` (stereo not shown) [compound 16, 3-methyl-2OG], the “IC50 (inhibition of AspH)” value in series [1] (setting [5]) is “Inactive”. For the same compound, the 50% inhibitory concentration (IC50) in series [1] (setting [6]) was more than 50 µM. In series [2], the K app m is 0.27 ± 0.04 µM and the v app max worked out at 0.0069 ± 0.0002 µM/s. Moreover, the “time to complete AspH-catalyzed oxidative decarboxylation (NMR)” value in series [3] was not above 5 min. Also, in series [4], the “AspH-catalyzed substrate conversion (hydroxylation of hFX-CP101-119)” value (“AspH-catalyzed substrate conversion” for short) is more than 95%.
The term melting point denotes the temperature, or range, at which the solid turns liquid. As for `O=C(O)CC(Cc1ccccc1)C(=O)C(=O)O` (stereo not shown) [compound 21], the melting point was > 250 °C (dec.). The IC50 in series [1] (setting [6]) was ~1.6 µM and 1.6 µM. In series [4], the “AspH-catalyzed substrate conversion” value is given as less than 1%.
Take `O=C(O)CC(Cc1ccc(F)cc1)C(=O)C(=O)O` (stereo not shown) [compound 22]: the melting point was > 250 °C (dec.). Also, the IC50 in series [1] (setting [6]) came out at 2.6 ± 0.8 µM. The “AspH-catalyzed substrate conversion” value in series [4] is recorded as less than 1%.
On the same counts, the results for `O=C(O)CC(Cc1ccc(OC(F)(F)F)cc1)C(=O)C(=O)O` (stereo not shown) [compound 23] are > 260 °C (dec.), 6.3 ± 2.6 µM and less than 1%.
On the same counts, the results for `COc1ccc(CC(CC(=O)O)C(=O)C(=O)O)cc1` (stereo not shown) [compound 24] are > 260 °C (dec.), 3.6 ± 1.4 µM and less than 1%.
Turning to `O=C(O)C(=O)CC(CCCc1ccccc1)C(=O)O` (stereo not shown) [compound 31], the melting point is > 220 °C (dec.). Moreover, the IC50 in series [1] (setting [6]) came to 0.25 ± 0.05 µM. Further, in series [4], the “AspH-catalyzed substrate conversion” value is less than 1%.
Regarding `O=C(O)C(=O)CC(Cc1ccccc1)C(=O)O` (stereo not shown) [compound 32, 4-benzyl-2OG], the melting point is > 240 °C (dec.). Moreover, in series [1] (setting [6]), the IC50 was found to be 0.43 ± 0.05 µM. In addition, in series [3] (10 μM His6-AspH315-758, 150 μM hFX-CP101-119, 150 μM 2OG derivative, 50 μM FAS, pH 7.5, 25 °C), the “AspH-catalyzed oxidative decarboxylation of the 2OG derivative (NMR)” value is “apparently not turned over”. Besides, the “AspH-catalyzed substrate conversion” value in series [4] is recorded as less than 1%.
As for `O=C(O)C(=O)CC(Cc1ccc2ccccc2c1)C(=O)O` (stereo not shown) [compound 33], the melting point was > 220 °C (dec.). Moreover, the IC50 in series [1] (setting [6]) was found to be 0.17 ± 0.03 µM. The midpoint of inhibition in series [1] (IC50 at 200 μM 2OG (ESI Table S1), assay concentration of 200 μM 2OG), the IC50, lay at 2.5 ± 0.4 µM. In addition, 3.1 ± 0.3 µM corresponded to half-maximal inhibition in series [1] (IC50 at 400 μM 2OG (ESI Table S1), assay concentration of 400 μM 2OG) (IC50). Further, the IC50 in series [1] (IC50 at 600 μM 2OG (ESI Table S1), assay concentration of 600 μM (0.6 mM) 2OG) was 5.6 µM and ~5.6 µM. Besides, the “AspH-catalyzed substrate conversion” value in series [4] is less than 1%.
As for `O=C(O)C(=O)c1ccc(C(=O)O)s1` [compound 38], the melting point was > 285 °C (dec.). The IC50 in series [1] (setting [6]) was ~12.9 µM and 12.9 µM. In series [4], the “AspH-catalyzed substrate conversion” value is approximately 15%.
Take `O=C(O)C(=O)c1ccc(C(=O)O)cc1` [compound 41, 4-carboxyphenylglyoxylic acid]: the melting point is > 350 °C (dec.). Further, the “IC50 (inhibition of AspH)” value in series [1] (setting [5]) was “did not inhibit”. Moreover, the “IC50 (inhibition of AspH)” value in series [1] (50 nM His6-AspH315–758, 1.0 μM hFX-CP101–119, 3 μM 2OG, listed as C00012) is recorded as “Inactive”. In series [2], the K app m stood at 61.9 ± 11.0 µM and the v app max is 0.004 ± 0.0003 µM/s. Further, the “K app m relative to that for 2OG (times higher)” value in series [2] (ratio to K app m of 2OG) is reported as approximately 47. Further, in series [3], the “time to complete AspH-catalyzed oxidative decarboxylation (NMR)” value is listed as not above 5 min. Besides, the “AspH-catalyzed substrate conversion” value in series [4] was approximately 80%.
For `O=C(O)C(=O)c1ccc(C(=O)O)cc1F` [compound 42], the melting point was > 310 °C (dec.). Besides, in series [1] (setting [5]), the “IC50 (inhibition of AspH)” value was “Inactive”. For the same compound, in series [4], the “AspH-catalyzed substrate conversion” value was approximately 45%.
On the same counts, the results for `O=C(O)C(=O)c1ccc(C(=O)O)c(F)c1` [compound 43] are > 260 °C (dec.), “Inactive” and approximately 8%.
Turning to `O=C(O)C(=O)c1ccc(C(=O)O)cc1Br` [compound 44], the melting point is > 300 °C (dec.). The “IC50 (inhibition of AspH)” value in series [1] (setting [5]) was “Inactive”. The “AspH-catalyzed substrate conversion” value in series [4] was approximately 20%.
On the same counts, the results for `Cc1cc(C(=O)O)ccc1C(=O)C(=O)O` [compound 46] are > 320 °C (dec.), “Inactive” and approximately 5%.
Turning to `O=C(O)C(=O)C12CCC(C(=O)O)(CC1)CC2` [compound 47], the melting point was > 300 °C (dec.). Besides, the “IC50 (inhibition of AspH)” value in series [1] (setting [5]) is reported as “did not inhibit”. Further, the “IC50 (inhibition of AspH)” value in series [1] (50 nM His6-AspH315–758, 1.0 μM hFX-CP101–119, 3 μM 2OG, listed as C00030) is “Inactive”. Besides, the “AspH-catalyzed substrate conversion” value in series [4] is on record as approximately 8%.
